Columns and labels:
[1] = tested on: PEO1-STOP (PEO-1s) ovarian cancer cell line; assay: MTT cytotoxicity assay, PEO1-STOP; assay type: cell-based, human; details: Homo sapiens, read-out: IC50, viability of ovarian cancer cell line
Description: SKOV-3 ovarian cancer cells were purchased from American Type Culture Collection (ATCC) (Manassas, Va.). SKOV-3 cells were cultured in McCoy's 5A medium (ATCC, Manassas, Va.) supplemented with 10% fetal bovine serum and 100 units/mL penicillin G sodium, 100 ug/mL streptomycin sulfate, and 292 μg/ml, L-glutamine (BioWhittaker, Wakersville, Md.). Luciferase-expressing cells were generated by infecting SKOV-3 cells with pCLNCX-luciferase retrovirus (SKOV-3-Luc) as previously reported (Wei, B. R. et al. 2009). Human OVCAR-8 ovarian cancer cells were provided by the National Cancer Institute (part of the NCI-60 collection). The PEO1, PEO4, and PEO6 ovarian cancer cell lines have previously been characterized (Langdon, S. P. et al. 1988) and were kindly provided by Dr. Ian Goldlust (National Center for Advancing Translational Sciences, Shady Grove, Md.). […]
Cell survival was measured by the 3-(4,5-dimethylthiazol-2-yl)-2,5-diphenyltetrazolium bromide (MTT, Invitrogen) assay. […] Absorbance values were determined at […] on a Spectra Max 250 spectrophotometer (Molecular Devices, Sunnyvale, Calif.). […] Cell viability was analyzed via the MTT assay as described above. […]

OVCAR-8 cells = assay: Cell-cycle analysis (FACS), OVCAR-8; assay type: cell-based, human; details: LB100 2 μM
Description: For cell-cycle analysis, cells were washed with PBS and fixed overnight in ice-cold 70% ethanol and stored at 4° C. Cells were then centrifuged and resuspended in 100 U RNAse (Sigma-Aldrich), and incubated at 37° C. for 20 min. Propidiumidodide solution (Invitrogen, 500 μL, 50 μg/mL in DPBS) was added to each tube and incubated in the dark at 4° C. overnight. Flow cytometry analysis was performed with CellQuestPro and data analysis was completed with ModFit LT. All data is in triplicate and presented as a percent mean±SD.

OVCAR-8 NT shRNA cells = assay: Cell viability (MTT) assay, OVCAR-8 NT shRNA; assay type: cell-based; details: Homo sapiens; OVCAR-8 NT shRNA (control)
Description: Cell survival was measured by the 3-(4,5-dimethylthiazol-2-yl)-2,5-diphenyltetrazolium bromide (MTT, Invitrogen) assay. Cells were seeded at a density of 5,000 cells per well in 96-well plates and incubated at 37° C. in humidified 5% CO2 for 24 hours. The 50% inhibitory concentration (IC50) values were defined as the drug concentrations required to reduce cellular proliferation to 50% of the untreated control well. […] All MTT assays were carried out according to the manufacturer's instructions (Molecular Probes, Eugen, Oreg.). Absorbance values were determined at […] on a Spectra Max 250 spectrophotometer (Molecular Devices, Sunnyvale, Calif.). All MTT assays were performed in triplicate. […] Cells were treated with both drugs for 72 h. Cell viability was analyzed via the MTT assay as described above. Experiments were performed in triplicate, and the data are presented as a percent mean±SD.
To stably knockdown expression of PP2AC, a pLKO.1-puro plasmid-based […] shRNA targeting the sequence: […] (clone ID:TRCN0000002483, Sigma-Aldrich) was employed (PP2AC-shRNA). Additionally, a non-targeting shRNA plasmid (NT-shRNA) that targets no known human sequence was utilized as a control. […]

CN1CCN(C(=O)C2C(C(=O)O)[C@H]3CC[C@@H]2O3)CC1 (some centres unmarked) [LB100]
IC50 [1]: 6.9 ± 1 µM
G1 (%) (OVCAR-8 cells; 24 h): 45.4 ± 1.5%
G2/M (%) (OVCAR-8 cells; 24 h): 17.6 ± 0.4%
S (%) (OVCAR-8 cells; 24 h): 37.0 ± 1.6%
G1 (%) (OVCAR-8 cells; 48 h): 55.3 ± 0.4%
G2/M (%) (OVCAR-8 cells; 48 h): 14.9 ± 1.5%
S (%) (OVCAR-8 cells; 48 h): 29.9 ± 1.1%
IC50 (OVCAR-8 NT shRNA cells): 15.7 ± 1.3 µM
